Residue numbers refer to the chain shown, from its start.
Columns and labels:
Experiment in all cases: [3H]uridine uptake inhibition by purines in PfENT1-SNP-expressing yeast
Format in all cases: cell-based
[1] = target: T1, PfENT1 L197F (Plasmodium falciparum, UniProt Q8IDM6, L197F)
T1 sequence (Q8IDM6 1-422 L197F): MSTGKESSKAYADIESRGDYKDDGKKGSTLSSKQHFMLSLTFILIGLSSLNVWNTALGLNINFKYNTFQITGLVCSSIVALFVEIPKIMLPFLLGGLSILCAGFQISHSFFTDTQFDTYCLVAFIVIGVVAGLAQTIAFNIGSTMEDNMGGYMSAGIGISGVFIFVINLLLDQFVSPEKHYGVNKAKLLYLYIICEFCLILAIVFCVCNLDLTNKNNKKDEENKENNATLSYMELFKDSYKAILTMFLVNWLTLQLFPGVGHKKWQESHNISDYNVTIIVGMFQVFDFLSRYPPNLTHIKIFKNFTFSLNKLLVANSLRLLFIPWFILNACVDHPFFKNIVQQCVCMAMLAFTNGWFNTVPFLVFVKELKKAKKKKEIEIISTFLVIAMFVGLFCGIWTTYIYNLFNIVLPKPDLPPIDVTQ

[2] = target: T2, PfENT1 Q284E (Plasmodium falciparum, UniProt Q8IDM6, Q284E)
T2 sequence (Q8IDM6 1-422 Q284E): T1 sequence (Q8IDM6 1-422 L197F) with F197L, Q284E

[3] = target: T3, PfENT1 S317T (Plasmodium falciparum, UniProt Q8IDM6, S317T)
T3 sequence (Q8IDM6 1-422 S317T): T1 sequence (Q8IDM6 1-422 L197F) with F197L, S317T

[4] = target: T4, PfENT1 A351S (Plasmodium falciparum, UniProt Q8IDM6, A351S)
T4 sequence (Q8IDM6 1-422 A351S): T1 sequence (Q8IDM6 1-422 L197F) with F197L, A351S

[5] = target: T5, PfENT1 L385I (Plasmodium falciparum, UniProt Q8IDM6, L385I)
T5 sequence (Q8IDM6 1-422 L385I): T1 sequence (Q8IDM6 1-422 L197F) with F197L, L385I

[6] = target: T6, PfENT1 V129I/L133F (Plasmodium falciparum, UniProt Q8IDM6, L133F/V129I)
T6 sequence (Q8IDM6 1-422 V129I/L133F): T1 sequence (Q8IDM6 1-422 L197F) with V129I, L133F, F197L

Row | SMILES | IC50 [1] [µM] | IC50 [2] [µM] | IC50 [3] [µM] | IC50 [4] [µM] | IC50 [5] [µM] | IC50 [6] [µM]
1 | Nc1ncnc2nc[nH]c12 [Adenine, adenine] | 46 ± 5 | 1070 ± 128 | 205 ± 49 | 1240 ± 142 | 185 ± 15 | 930 ± 285
2 | O=c1[nH]cnc2nc[nH]c12 [Hypoxanthine, hypoxanthine] | 282 ± 8 | 566 ± 133 | 175 ± 31 | 576 ± 270 | 173 ± 46 | 360 ± 66
3 | OC[C@H]1O[C@@H](n2cnc3c(O)ncnc32)[C@H](O)[C@@H]1O [Inosine, inosine] | 37 ± 12 | 18 ± 6 | 28 ± 2 | 26 ± 9 | 58 ± 17 | 20 ± 7
